# Test results from patent US20020182179A1, “HIV Therapy” (priority 1999, published 2002).
# Assays:
# HIV-1 protease = HIV-1 protease (Human immunodeficiency virus type 1 group M subtype B, UniProt P04585); settings: Phase I studies; cited from earlier work
# [1] = preclinical; po and IV; cited from earlier work
# HIV-1 = settings: clinical use; cited from earlier work
# HIV-1-LAI strain = experiment: in vitro anti-HIV-1 activity in PHA-P-activated PBMCs, RT activity in cell supernatants; format: cell-based
# Description: Healthy PBMCs were separated from a buffy-coat of one HIV-seronegative blood donor by Ficoll-Hypaque density gradient centrifugation. PBMCs were activated by 1 μg/ml phytohemagglutinin (PHA-P) for two days in cell culture medium A: RPMI 1640 supplemented with 10% heat-inactivated (+56° C., 45 min.) fetal calf plasma (FCS), 2 mM L-glutamine and a tri-antibiotic mixture (penicillin, streptomycin, neomycin; PSN). After these two days, cells were washed and cultured at one million cell per milliliter in cell culture medium B: cell culture medium A supplemented with 20 IU/ml recombinant human interleukin-2. Cells were maintained at +37° C. in a 5% CO2-air humidified atmosphere.
# Experiments were repeated twice with cells of other blood donors. In total, three independent experiments were performed. […]
# 200,000 PHA-P-activated PBMCs were added to each well of 96-well microplates. […] At day 7, RT activity were determined in cell supernatants, and potential cytotoxic effects of drugs and drug combinations were evaluated by microscopic observation.
# Viral replication was measured by determining reverse transcriptase (“RT”) activity in cell supernatants using Retro-Sys® kit, according to manufacturer's recommendations (Innovagen, Lund, Sweden).
# Effective doses were calculated using cumulative RT activities with Chou J. and T C. microcomputer software.
# duck HBV = settings: preclinical; cited from earlier work
molecule,measurement,setting,value
Cc1cccc(C)c1OCC(=O)N[C@@H](Cc1ccccc1)[C@@H](O)C[C@H](Cc1ccccc1)NC(=O)[C@H](C(C)C)N1CCCNC1=O [ABT-378],potency relative to ritonavir,HIV-1 protease,^9Phase I Studies show ABT-378 to be 10X more potent than ritonavir; see PharmaProjects sections J5A & J5Z.
"Nc1nc(N)c2ncn([C@H]3CO[C@@H](CO)O3)c2n1 [DAPD, (−)-beta-D-2,6,-diaminopurine dioxolane]",activity by route of administration,[1],"^10Preclinical; active po and IV; DAPD is a prodrug of another dioxolene purine, DXG. See PharmaProjects, sections J5A & J5Z"
CC(C)c1nc(CN(C)C(=O)N[C@H](C(=O)N[C@@H](Cc2ccccc2)C[C@H](O)[C@H](Cc2ccccc2)NC(=O)OCc2cncs2)C(C)C)cs1 [Ritonavir],adverse effects,HIV-1,troublesome adverse effects
PEG12000-IFN-alfa2b: conjugate of interferon alfa-2b with polyethylene glycol of average molecular weight 12000 via a urethane linkage,effect on the in vitro anti HIV-1 activity of ribavirin,HIV-1-LAI strain; PHA-P-activated PBMCs infected with HIV-1-LAI,increased the in vitro anti HIV-1 activity of ribavirin
same,inhibition of HIV replication in vitro,"HIV-1-LAI strain; PHA-P-activated PBMCs, doses corresponding to plasmatic concentrations observed in animals and man",inhibited the HIV replication
"beta-L-2′, 3′-dicleoxy-5-fluorocytidene [Beta-L-FD4]",activity in duck HBV model,duck HBV,"^9Preclinical; active in duck HBV model; see PharmaProjects, sections J5A & J5Z"
